From US20220324958A1, “ANTI-INFLAMMATORY PEPTIDES, PHARMACEUTICAL COMPOSITION CONTAINING SUCH PEPTIDES, AND USES THEREOF” (INSTITUTO BUTANTAN, priority 2019, published 2022)
“Also recorded” adds a separate entry of the source. No end group written: not given here.

Assays:
[1] = tested on: osteoclast precursors (PBMNC); assay: Osteoclast differentiation model, TRAP+ cell count; assay type: cell-based, human; conditions: peptide 200 nM added on day four to osteoclast precursor culture, 15 days; compared to positive control (CTRL)
Description: A. Positive differentiation controls. B. Influence of synthetic peptides (200 nM) on osteoclast differentiation. C. Negative differentiation control. αMEM—Minimum Essential Medium Eagle Alpha Modification; FBS—fetal bovine serum; TRANCE—Tumor Necrosis Factor (TNF)-related Activation-induced Cytokine; M-CSF—Macrophage Colony-Stimulating Factor; TGF-β1—Transforming growth factor beta-1.
The present invention includes the culture of monocytic cells of human leukemia (THP-1), osteoclast, primary human blood-derived mononuclear cells (PBMNC), and human chondrocytes (NHAC-kn).
Negative differentiation controls. B. Influence of synthetic peptides (200 nM) on osteoclast differentiation.
PBMNC were isolated and, immediately after, plating inductive culture medium (composed of Alpha-MEM+10% FBS+MCSF [25 ng/mL]+RANKL [50 ng/mL]+TGF-beta 1 [5 ng/mL]+Dexamethasone [1 μM]) was added for 15 days. On day four, the L. obliqua venom at a concentration of […] or toxins at a concentration of 200 nM, each individually, was added to the osteoclast precursor culture and these culture conditions were maintained until the end of the differentiation. Then, the cells were fixed and stained with tartrate-resistant acid phosphatase (TRAP).

[2] = tested on: human chondrocytes (NHAC-kn); assay: Pro-inflammatory model of chondrocytes treated with IL-1β, cytokine release (Multiplex); assay type: cell-based; conditions: chondrocytes treated with IL-1β (1 ng/mL)
Description: Values were obtained from each analyte in pg/mL from treatment with the peptides in the presence of IL-1β (1 ng/mL). The data are presented as the mean±MSE (* p<0.05 when compared to the control with IL-1β, test t, n=3).
(B) Chondrocytes were pretreated for 1 hour with IL-1β (1 ng/mL) before the addition of peptides (200 nM, 500 nM, and 1.25 μM) and an additional incubation of 24 hours before collecting the supernatants.
The primary human chondrocytes used in this assay were purchased from Lonza: Normal Human Articular Primary chondrocytes (NHAC-Kn, #CC-2550, Lot 8F3336). Chondrocyte cell culture was performed in bottles (Sarstedt T175 and T75). The cells were cultivated in DMEM culture medium (Sigma) supplemented with 10% fetal bovine serum (FBS) (Sigma), incubated in an oven at 37° C. and 5% CO2, and cultures were used in the sixth passage. The culture medium was changed every two days until the culture reached 80% confluence.
The identification and quantitative analysis of the cytokines present in the peptide treatment supernatant were performed using the Luminex xMAP Milliplex MAP Human Cytokine/Chemokine Magnetic Bead Panel Catalog #HCYTOMAG-60K technology, according to the manufacturer's instructions.
Values were obtained from each analyte in pg/mL from treatment with the peptides in the presence of IL-1β (1 ng/mL). The data are presented as the mean±MSE (*p<0.05 when compared to the control with IL-1β, test t, n=3).

[3] = tested on: neurons obtained from SHSY5Y cells; assay: Anti-nociceptive/anti-inflammatory model, neurons stimulated with glycated collagen (GC): substance P and β-endorphin in supernatant; assay type: cell-based
Description: ANOVA and Dunnet * p<0.05; ** p<0.01 compared to glycated collagen (GC);
ANOVA and Dunnet * p<0.05 ** p<0.01, *** p<0.001 compared with GC;
(§1) The differentiation process consists of 6 stages distributed over 7 days. On the first day of the differentiation protocol (day 0), cells were seeded in collagen-coated plates. On days 1, 3, and 4 the culture medium was removed, and the differentiation medium containing 2% fetal bovine serum (FBS) and retinoic acid (RA) 10 μM) was added. On day 5, the medium was removed and the culture was incubated with culture medium and brain-derived neurotrophic factor (BDNF) (50 ng/mL). On day 7 of the differentiation process, differentiated neurons are fully ready for use (Agholme et al., 2010, with some modifications).
(§2) 7×10^3 neurons/well were incubated with 10 μM of morphine (inhibitory response control) or peptides (200 nM and 500 nM) 3 hours before or 3 hours after incubation with IL-1β (10 ng/mL) or glycated collagen (GC) (100 μg/mL) (both positive controls for the release of substance P). After 24 hours of incubation, the cell viability assay and the detection of substance P and β-endorphin in the supernatant were performed. Multiplex with magnetic spheres (MILLIPLEX® MAP Magnetic Bead Panel)
ANOVA and Dunnet * p<0.05; ** p<0.01 compared to GC.
ANOVA and Dunnet * p<0.05 ** p<0.01, *** p<0.001 compared to GC.

[4] = tested on: THP-1 cells differentiated into macrophages; assay: LPS-induced cytokine production in THP-1-derived macrophages (Multiplex); assay type: cell-based, human; conditions: for levels of IL-10 (anti-inflammatory cytokine) / levels of IL-1β / levels of IL-6 / levels of TNF-a: peptide 200 nM one hour later; for levels of IL-1β / levels of IL-6 / levels of TNF-a: vs group treated only with LPS; for production of inflammatory cytokines in response to LPS (dose-dependent): dose-response 0.05-2 μM, TNF-α, IL-6, IL-23, IL-8
Description: THP-1 cells differentiated into macrophages were induced with LPS (10 ng/mL) and, one hour later, treated with synthetic peptides at a concentration of 200 nM. Dexamethasone (10 μM), an inflammatory inhibitor, was used as a control. After 24 hours, the culture medium was collected to measure the IL-1β (A), IL-6 (B), TNF-α (C), and IL-10 cytokines using a Multiplex kit. * p<0.05 vs. LPS; ** p<0.01 vs. LPS; *** p<0.005 vs. LPS;
THP-1 cells differentiated into macrophages were induced with LPS (10 ng/mL) and, one hour later, treated with L4 or D3 peptide (0.05 μM, 0.2 μM, 1 μM, and 2 μM). After 24 hours, the culture medium was collected and TNF-alpha, IL-6, IL-23, and IL-8 were measured by Multiplex. (A) L4 peptide. (B) D3 peptide;
(§3) Macrophages were obtained from the differentiation of monocytes THP-1. Briefly, 1×10^7 cells were treated in the RPMI medium with 25 nM PMA for 48 hours followed by 24 hours of rest in medium without PMA. Subsequently, the cells were released and plated for the respective treatments.
The kit is based on Luminex® xMAP® technology that allows the simultaneous analysis of various cytokines. The technique is based on marked magnetic fluorescent spheres, known as MagPlex®-C microspheres. These microspheres are covered with capture antibodies specific for IL-6 […], and specifically capture the analyte in the supernatant. Each microsphere was individually identified and the results were analyzed using Luminex® Xponent® 4.2 acquisition software.
THP-1 cells differentiated into macrophages were induced with LPS (10 ng/mL) and, one hour later, treated with synthetic peptides, […] (inflammation inhibitor, 10 μM). After 24 hours, the culture medium was collected and IL-1β (A), IL-6 (B), TNF-α (C), and IL-10 were measured by Multiplex. * p<0.05 vs. LPS; ** p<0.01 vs. LPS; *** p<0.005 vs. LPS.
THP-1 cells differentiated into macrophages were induced with LPS (10 ng/mL) and, one hour after, treated with L4 (0.05 μM, 0.2 μM, 1 μM, and 2 μM). After 24 hours, the culture medium was collected and TNF-α, IL-6, IL-23, and IL-8 were measured by Multiplex. (A) L4 peptide. (B) D3 peptide.

[5] = tested on: neurons obtained from SHSY5Y cells; assay: Anti-nociceptive/anti-inflammatory model, neurons stimulated with IL-1β: substance P and β-endorphin in supernatant; assay type: cell-based
Description: ANOVA and Dunnet ** p<0.01, *** p<0.001 compared to IL-1β;
as §1, §2
ANOVA and Dunnet ** p<0.01, *** p<0.001 compared to […]

[6] = tested on: macrophages derived from THP-1; assay: Cell viability (MTT) of macrophages derived from THP-1; assay type: cell-based, human
Description: as §3
The evaluation of metabolically active cells was performed using the colorimetric assay of [3-(4,5-dimethylthiazol-2-yl)-2,5-diphenyl tetrazolium] bromide (MTT, Sigma-Aldrich, St. Louis, USA), as previously reported (Twentyman et al., 1987). After each incubation period, the supernatant was removed and a MTT solution (0.5 mg/mL in phosphate-buffered saline—PBS) was added, and the cells incubated at 37° C. and 5% CO2 for 3 hours (Yang et al., 2012). After this period, the solution was removed and crystals of dark blue formazan were solubilized with 1 mL of dimethyl sulfoxide (DMSO, Merck, Darmstad) for 5 minutes. Quantification of formazan was done using an automatic ELISA microplate reader (SLT, Austria) at 570 nm.

[7] = peptide 200 nM incubated 3 hours after GC (100 μg/mL)
[8] = dose-response 0.05, 0.2, 1 and 2 μM, LPS 10 ng/mL, 24 hours
[9] = peptide 200 nM added 3 hours after IL-1β (10 ng/mL)

In the case of “NYFKNGKDVN (Designated peptide based on the motif of a group of proteins called hemoline from lepidoptera acting as an anti-inflammatory molecule) [L2]”, the “number of TRAP+ cells” value [1] is reported as “no statistically significant difference” and the “anti-inflammatory activity (release of G-CSF, GM-CSF, IL-6, IL-8, MCP-1, TNF-α)” value [2] is reported as “anti-inflammatory activity”.

With “YSIVAGCL (Designated peptide based on the motif of a group of proteins called hemoline from lepidoptera acting as an anti-inflammatory molecule) [E8]” the “production of Substance P” value [3, 7] was “significantly inhibited”, the “production of β-endorphin” value [3, 7] was “increased” and the “anti-inflammatory activity (release of G-CSF, GM-CSF, IL-6, IL-8, MCP-1, TNF-α)” value [2] was “anti-inflammatory activity”.

With “DYWHDGHDLN (Designated peptide based on the motif of a group of proteins called hemoline from lepidoptera acting as an anti-inflammatory molecule.) [D3]” the “levels of IL-10 (anti-inflammatory cytokine)” value ([4]; LPS 10 ng/mL, 24 hours) was “reduced”, the “levels of IL-1β” value ([4]; LPS 10 ng/mL, 24 hours) was “significantly reducing” and the “levels of IL-6” value ([4]; LPS 10 ng/mL, 24 hours) was “significantly reducing”. For the same molecule, the “levels of TNF-a” value ([4]; LPS 10 ng/mL, 24 hours) was “significantly reducing”, the “best dose regarding IL-6 release” value [4, 8] was 1 µM and the “best dose regarding IL-8 release” value [4, 8] was 1 µM. For the same molecule, the “most effective dose concerning IL-23 release” value [4, 8] was 1 µM, the “most effective dose concerning TNF-α release” value [4, 8] was 1 µM and the “production of inflammatory cytokines in response to LPS (dose-dependent)” value [4] was “reduced”. For the same molecule, the “production of Substance P” value [5, 9] was “inhibit”, the “production of β-endorphin” value [5, 9] was “induced” and the “production of substance P induced by IL-1β” value ([5]; peptide 200 nM added 3 hours before IL-1β (10 ng/mL)) was “significantly inhibited”. The “production of Substance P” value [3, 7] was “significantly inhibited”, the “production of β-endorphin” value [3, 7] was “increased” and the “anti-inflammatory activity (release of G-CSF, GM-CSF, IL-6, IL-8, MCP-1, TNF-α)” value [2] was “anti-inflammatory activity”.

In the case of “EEQTHFHFESPKLISFKVQDYWILNDIMKKNLTGISLKSEEEDADSGEID (Designated peptide based on the motif of a group of proteins called hemoline from lepidoptera acting as an anti-inflammatory molecule) [Cambly, peptide derived from the Amblyomin-X molecule with characteristics of CPP (cell-penetrating peptides)]”, the “production of Substance P” value [3, 7] is reported as “significantly inhibited”, the “production of β-endorphin” value [3, 7] is reported as “increased” and the “production of Substance P” value ([3]; peptide (200 nM and 500 nM) incubated 3 hours before GC (100 μg/mL)) is reported as “significantly decrease; also recorded: inhibited”. The “production of β-endorphin” value ([3]; peptide incubated 3 hours before GC (100 μg/mL)) was “did not affect” and the “number of TRAP+ cells” value [1] was “reduced”.

“TWNKKGKKVN (Designated peptide based on the motif of a group of proteins called hemoline from lepidoptera acting as an anti-inflammatory molecule) [L4]” was tested, and the “levels of IL-10 (anti-inflammatory cytokine)” value ([4]; LPS 10 ng/mL, 24 hours) was “increase”, the “levels of IL-1β” value ([4]; LPS 10 ng/mL, 24 hours) was “significantly reducing” and the “levels of IL-6” value ([4]; LPS 10 ng/mL, 24 hours) was “significantly reducing”. For the same molecule, the “levels of TNF-a” value ([4]; LPS 10 ng/mL, 24 hours) was “significantly reducing”, the “dose achieving the greatest inhibition of IL-6 release” value [4, 8] was 200 nM and the “dose achieving the greatest inhibition of IL-8 release” value [4, 8] was 200 nM. The “most effective dose concerning IL-23 release” value [4, 8] was 1 µM, the “most effective dose concerning TNF-α release” value [4, 8] was 1 µM and the “production of inflammatory cytokines in response to LPS (dose-dependent)” value [4] was “reduced”. The “anti-inflammatory activity (release of G-CSF, GM-CSF, IL-6, IL-8, MCP-1, TNF-α)” value [2] was “anti-inflammatory activity”.

For YAIGYSCKDYK [P4, YAIGYSCKDYK], the “viability of macrophages derived from THP-1” value [6] was “no effect”.

B1: YSIVAGSLGGGGEEQTHFHFESPKLISFKVQDYWILNDIMKKNLTGISLKSEEEDADSGEID (peptide)
chain: YSIVAGSLGGGGEEQTHFHFESPKLISFKVQDYWILNDIMKKNLTGISLKSEEEDADSGEID
modifications: Designated peptide based on the motif of a group of proteins called hemoline from lepidoptera acting as an anti-inflammatory molecule
For B1, the “number of TRAP+ cells” value [1] was “significant decrease; also recorded: reduced”.
